System: neuromuscular junction
Assay: inhibition of the ex-vivo neuromuscular junction preparation (FIG. 1)
Parameters: species or system mouse
Conditions: single molecule alone
Excerpt: The Applicants arrived at the results of the present invention in the course of their studies on the mechanism of action of snake presynaptic PLA2 neurotoxins. These presynaptic neurotoxins are major components of the venom of many poisonous snakes. Starting from: a) the established fact that these neurotoxins are endowed with a phospholipase A2 (PLA2) activity and that such activity leads to the production of LysoPLs and FAs following the hydrolysis of the fatty acid ester bond in position 2 of phospholipids (4); b) the fact that lysophospholipids and fatty acids in the appropriate membrane localization favor membrane fusion and inhibit membrane fission (5), and that c) such biological activities would lead to the depletion of synaptic vesicles from nerve terminals, as the one observed by electron microscopy upon exposure to the snake presynaptic PLA2 neurotoxins (6,7), the Applicants decided to test the effect of a mixture of lysophospholipids and fatty acids on the neuromuscular junction both in an ex-vivo preparation and in an in-vivo system.
Similar data were obtained with other lysoPLs varying with respect to R and/or with respect to R′. […] In other words, the two molecules act in a synergistic mode and this is at the very basis of the present patent. […]

Row | SMILES | inhibition of the neuromuscular junction
1 | CCCCCCCC/C=C\CCCCCCCC(=O)O [OA, oleic acid] | unable to elicit a substantial inhibition
2 | CCCCCCCCCCCCCC(=O)OC[C@@H](O)COP(=O)([O-])OCC[N+](C)(C)C [lysoPC, 1-Myristoyl-sn-glycero-3-phosphocholine] | unable to elicit a substantial inhibition

Reference: US20070036737A1, “PRODUCTS FOR TOPICAL A[…] LYSOPHO[…] FATTY ACIDS” (priority 2005, published 2007)
